Molecules are shown by their SMILES.

Experimental findings from ChEMBL document CHEMBL3861944 (Medchemcomm, 2016) are described below.

The subject of experiment [1] is THP-1. Description: Pro-apoptotic activity in human THP1 cells assessed as early apoptotic cells at 0.75 uM after 24 hrs by annexin V/propidium iodide staining-based flow cytometric method (reference value: 0.4 +/- 0.1%). The experiment is classed as functional.
Experiment [2] relates to THP-1. Description: Pro-apoptotic activity in human THP1 cells assessed as necrotic cells at 30 uM after 24 hrs by annexin V/propidium iodide staining-based flow cytometric method relative to control. The experiment is classed as functional.
Experiment [3] concerns ASPC1. Put plainly: Pro-apoptotic activity in human AsPC1 cells assessed as late apoptotic cells at 50 uM after 24 hrs by annexin V/propidium iodide staining-based flow cytometric method (reference value: 0.8 +/- 0.1%). The experiment is classed as functional. On the technique in general: A flow cytometer gives signals particle by particle.
The subject of experiment [4] is ASPC1. Description: Pro-apoptotic activity in human AsPC1 cells assessed as early apoptotic cells at 100 uM after 24 hrs by annexin V/propidium iodide staining-based flow cytometric method (reference value: 0.8 +/- 0.1%). The experiment is classed as functional.
The test system of experiment [5] is ASPC1. Description: Pro-apoptotic activity in human AsPC1 cells assessed as late apoptotic cells at 100 uM after 24 hrs by annexin V/propidium iodide staining-based flow cytometric method (reference value: 0.8 +/- 0.1%). The experiment is classed as functional.
The nature of experiment [6]: Cell cycle arrest in human THP1 cells assessed as accumulation at G2/M phase at 30 uM after 24 hrs by flow cytometric method (reference value: 32 +/- 1%). The experiment is classed as functional, cell-based. The conditions noted are these: THP-1.
Experiment [7] is described as follows: Cell cycle arrest in human AsPC1 cells assessed as accumulation at G0/G1 phase at 75 uM after 24 hrs by flow cytometric method (reference value: 48 +/- 7%). The experiment is classed as functional, cell-based.
Experiment [8] in a line: Cell cycle arrest in human AsPC1 cells assessed as accumulation at S phase at 75 uM after 24 hrs by flow cytometric method (reference value: 23 +/- 3%). The experiment is classed as functional, cell-based.

On to `NC(=[Se])N/N=C/c1cccc2cccnc12`, for which the Activity in the experiment on THP-1 [1] was determined as 1.1%; with THP-1 [2], 4%; in the experiment on ASPC1 [3], 0.3%; in the experiment on ASPC1 [4] it was 5.7%; in the experiment on ASPC1 [5], 26.5%; in experiment [6] it was 26%. In addition, the Activity stood at 63.3% in experiment [7] and 22.3% in experiment [8].
